From patent US7070941B2, “Methods and compositions for tagging via azido substrates” (Board of Regents, The University of Texas System, priority 2003, dated 2006)

Legend:
Ras [1] = test: Ras localisation, cytosol versus membrane association; type: cell-based; conditions: for membrane association of Ras: cells treated with lovastatin plus azido-farnesyl substrate
From the text: Farnesylated Ras protein is plasma-membrane associated while the unprocessed isoform is mainly located in cytosol.

Ras [2] = test: mobility-shift assay of Ras in labeled COS-1 cells (SDS-PAGE/Western blot); type: cell-based; conditions: 24 h; for effect on lovastatin-induced mobility shift of Ras: COS-1 cells treated with lovastatin
Procedure: FIG. 3. Detection of F-azide modified Ras and HDJ-2 by mobility-shift assay. Mobility-shift assay of Ras (A) and HDJ-2 (B). COS-1 cells were labeled with the indicated compounds for 24 h, the cell lysate were resolved in SDS-PAGE and probed using anti-Ras and anti-HDJ-2 antibodies, respectively. The letters, “u” and “p”, indicate the unmodified and isoprenylated forms of the protein, respectively.
To determine if the cell will process exogenous azido-farnesyl substrates, metabolic labeling of cells was carried out with synthetic substrates, either FPP azide or F-azide-OH, and mobility-shift assays were performed for Ras and HDJ-2 in order to determine if they are posttranslationally modified. Unprocessed Ras and HDJ-2 move more slowly than their farnesylated isoforms, therefore allowing separation in SDS-PAGE and subsequent detection by Western blotting analysis (James, 1994; Adjei, 2000).
COS-1 cells were grown in Dulbecco's modified Eagle's medium supplemented with 10% fetal bovine serum, 1% penicillin/streptomycin. When cells reached to 70% confluence, lovastatin was added and incubated for suitable amount of time prior to adding FPP azide.
Cells were harvested and lysed in 1 ml of lysis buffer (50 mM HEPES pH 7.6, 250 mM sodium chloride, 1.5 mM magnesium chloride, 1 mM EDTA, 10% (v/v) glycerol, 1% Triton X-100, and protease inhibitor cocktail (Roche Molecular Biochemicals, Indianapolis, Ind.)). The protein lystes were resolved in a 15% SDS-polyacrylamide gel, and transferred to PVDF membrane. The membrane was washed with TBST buffer (0.1% Tween 20, 150 mM NaCl, 25 mM TrisCl, pH 7.5), blocked for 2 h with a solution containing 5% (w/v) dried nonfat milk in TTBS, and immunoblotted for 2 h with an antibody in a blocking buffer (5% BSA in TTBS). After washing 4 times with TBST with changes every 15 min., the membrane was incubated with HRP-conjugated secondary antibody in TBST (1:5000 dilution) with 5% non-fat milk. The membrane was washed again for 4 times in TBST and visualized by enhanced chemiluminescence.

cells = test: growth rate of cells cultured in DMEM media with the labeling compounds; type: cell-based; conditions: DMEM media containing lovastatin, FPP-azide/F-azide-OH, and GG-OH together
From the text: Several lines of evidence indicate that F-azide modified proteins maintain the major characteristics of naturally farnesylated proteins. First, F-azide-modified Ras retains GTPase activity. Second, F-azide modification induced Ras' membrane association.

COS cells = test: global detection of F-azide modified proteins by Western blotting after conjugation to biotinylated phosphine capture reagent; type: cell-based; conditions: COS cells dosed with lovastatin and substrate; signals competed away by 0.1 mM D-biotin
Procedure: FIG. 4. Global detection of F-azide modified proteins by Western blotting analysis. COS cells were labeled with DMSO, or FPP N3 with or without lovastatin, as indicated, for 24 h. The protein lysates from the cells were precipitated by acetone/TCA method, redissolved in a buffer containing 2% SDS and PBS. The resulting solution was conjugated to biotinylated phosphine capture reagents or not, precipitated by acetone/TCA method again. The protein pellet was redissolved in 1×SDS sample buffer, resolved in SDS-PAGE, and detected by Western blotting analysis using streptavidin-conjugated HRP with or without biotin.
To further test whether proteins could be modified by F-azide and subsequently detected, Western blotting analysis was carried out in order to detect F-azide modified proteins. The protein whole-cell lysate from the cells dosed with lovastatin and FPP azide was subjected to conjugation reaction using biotinylated phosphine capture reagent. The resulting lysate was resolved using a SDS-PAGE gel and the biotinylated proteins detected by Western blotting analysis using HRP-conjugated streptavidin.
COS-1 cells were grown in Dulbecco's modified Eagle's medium supplemented with 10% fetal bovine serum, 1% penicillin/streptomycin. When cells reached to 70% confluence, lovastatin was added and incubated for suitable amount of time prior to adding FPP azide. […]

Ras [3] = test: immunoprecipitation of Ras, conjugation to biotinylated phosphine capture reagent and Western blotting; type: cell-based; conditions: cells dosed with FPP-azide versus control cells
From the text: The resulting immunocomplexes were resolubilized in 1×SDS sample buffer and then subjected to conjugation reaction using biotinylated phosphine capture reagents, respectively. The free biotinylated capture reagent was removed by a desalting column, resolved in SDS-PAGE, and then detected by Western blotting analysis […]. Protein signals corresponding molecular weights of HDJ-2 and Ras were detected from the cells dosed with FPP-azide but not in the control cells.

FTase = FTase (Homo sapiens, UniProt P49354+P49356); test: in vitro farnesylation reaction of RC peptide (KKFFCAIS) with FTase, MALDI-TOF readout; type: biochemical
Procedure: FIG. 2. FPP azide is a substrate for in vitro farnesylation reaction. MALDI-TOF mass spectra of RC peptide before (A) and after (B) in vitro farnesylation reaction. One hundred pmol RC-peptide (KKFFCAIS) were mixed with 3000 pmol FPP azide and 35 pmol FTase in 7 μl reaction buffer and incubated at 30° C. for 10 h. The F-azide modified RC-peptide was confirmed by mass spectrometry (m/z, 1191).
To determine whether farnsyltransferase can use FPP azide as a substrate for protein farnesylation, an in-vitro enzymatic reaction was carried out between a CAAX-box containing peptide (RC peptide, KKFFCAIS) and FPP azide.
The molecular masses of the peptide prior to and after enzymatic reaction were determined by MALDI-TOF mass spectrometry. F-azide-modified peptide was detected after enzymatic reaction (m/z, 1191 Da, a mass increase of 246 Da over RC peptide) (FIG. 2).
In a parallel study, an enzymatic reaction was carried out with FPP, the natural substrate for protein farnesylation.

Chain of FTase (P49356 whole entry, one chain of several): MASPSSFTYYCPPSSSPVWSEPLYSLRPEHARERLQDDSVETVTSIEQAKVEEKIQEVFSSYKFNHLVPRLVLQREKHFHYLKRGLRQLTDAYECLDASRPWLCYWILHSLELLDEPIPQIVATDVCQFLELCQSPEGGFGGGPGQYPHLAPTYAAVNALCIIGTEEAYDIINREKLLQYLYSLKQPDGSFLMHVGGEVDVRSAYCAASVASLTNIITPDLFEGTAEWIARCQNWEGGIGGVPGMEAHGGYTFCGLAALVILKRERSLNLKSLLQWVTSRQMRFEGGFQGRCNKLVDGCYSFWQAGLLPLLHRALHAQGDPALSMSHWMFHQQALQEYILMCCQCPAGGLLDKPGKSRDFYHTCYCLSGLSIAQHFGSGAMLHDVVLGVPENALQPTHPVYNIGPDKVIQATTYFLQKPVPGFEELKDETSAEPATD

| Compound | membrane association of Ras (Ras [1]) | effect on lovastatin-induced mobility shift of Ras (Ras [2]) | growth rate of cells compared with cells cultured without the compounds (cells) | F-azide modified proteins detected by Western blotting with HRP-conjugated streptavidin (COS cells) | localisation of Ras (Ras [1]; cells treated with lovastatin) | mobility shift of Ras (Ras [2]; COS-1 cells, compound alone) | protein signal at the molecular weight of Ras (Ras [3]) | substrate for the farnesyltransfer reaction in vitro (FTase; RC peptide, FTase) | reaction rate with RC peptide compared with FPP (FTase; in vitro enzymatic reaction, parallel study with natural substrate FPP) |
| --- | --- | --- | --- | --- | --- | --- | --- | --- | --- |
| CC(=CCO)CCC=C(C)CCC=C(C)CN=[N+]=[N-] [F-azide-OH, azido-farnesyl alcohol] | restore membrane association | reversed the mobility shift | comparable growth rate | detection of multiple proteins |  |  |  |  |  |
| CC[C@H](C)C(=O)O[C@H]1C[C@@H](C)C=C2C=C[C@H](C)[C@H](CC[C@@H]3C[C@@H](O)CC(=O)O3)[C@H]21 [lovastatin, reference compound] |  |  |  |  | mainly detected in cytosol | induce mobility shift |  |  |  |
| CC(C)=CCC/C(C)=C/CC/C(C)=C/CC/C(C)=C/CO [GG-OH, geranylgeranyl alcohol, reference compound] |  | not affect the mobility shifts |  |  |  |  |  |  |  |
| azido farnesyl diphosphate [FPP azide] | restore membrane association | reversed the mobility shift | comparable growth rate | detection of multiple proteins |  |  | detected | good substrate | somewhat faster |
